{"source": "paper PMC12606464", "about": "“Investigating NFE2L1 activators for targeted protein aggregate clearance: a follow-up study” (RSC Medicinal Chemistry, 2025)", "key": {"[1]": {"system": "ubiquitin-proteasome system", "assay": "Ub-G76V-GFP reporter degradation in U2OS cells", "assay_type": "cell-based", "excerpt": "(§1) We next examined whether the selected RUN compounds activate the NFE2L1 pathway in a stress-independent manner, while preserving normal ubiquitin-dependent proteasomal degradation. This distinction is crucial, as the therapeutic benefit of NFE2L1 activation lies in its ability to alleviate proteotoxic stress and target disease-related proteins for degradation without compromising normal proteostasis. To assess this, U2OS cells stably expressing the short-lived fluorescent reporter Ub-G76V-GFP were treated with various concentrations of RUN compounds. […] We also examined whether compound-induced activation of NFE2L1 could be attributed to the generation of reactive oxygen species (ROS). To test this, the 3×PSMA4-ARE-LUC reporter assay was performed in the presence or absence of the antioxidant N-acetyl-L-cysteine (NAC). A decrease in reporter activity upon NAC treatment would indicate pathway activation through oxidative stress.\nRUN compound (5 µM) for 8 hours. Fluorescence intensity was normalized to cell viability (measured by the alamarBlue assay) and compared to vehicle control (DMSO). Unlike the […]\nas means ± SD from three independent experiments (n = 3). Statistical analysis was performed using a multiple unpaired t-test with Welch’s correction, with adjustment for multiple comparisons by the Holm–Šídák method (α = 0.05). ****p<0.0001. Detailed results of the analysis are shown in Supplementary Table S14. […]\n2.4 Monitoring protein degradation using UbG76V-GFP reporter cells\nU2OS cells stably expressing the Ub-G76V-GFP reporter were seeded into 96-well plates at and cultured overnight under standard conditions. On the following day, cells were treated with the indicated test compounds or DMSO vehicle control for 8 hours. After treatment, GFP fluorescence intensity was measured, providing a readout of proteasome-dependent degradation of the Ub-G76V-GFP substrate. Cell viability was then assessed in the same wells using the alamarBlue assay according to the manufacturer’s protocol. Viability values were used for normalization of fluorescence data to account for differences in cell number. Accumulation of GFP signal relative to DMSO-treated controls was interpreted as reduced degradation of UPS substrates, indicating potential effects of the compounds on the natural protein turnover.\nStatistical comparison of RUN compounds with ASC-JM17 was performed using a multiple unpaired t-test with Welch’s correction, with adjustment for multiple comparisons by the Holm–Šídák method (α = 0.05) in GraphPad Prism (v 10.6.1). […]\nRNA was extracted using […]\nthe RNeasy® Plus Micro Kit according to the manufacturer’s instructions. Complementary DNA (cDNA) was synthesized from RNA using either t he TATAA GrandScript cDNA Supermix (TATAA Biocenter) or the QuantiTect® Reverse Transcription Kit (Qiagen), following the respective protocols. Quantitative RT -PCR was performed on a LightCycler® 480 instrument (Roche Life Science) using the TATAA SYBR® Gr andMaster® Mix (TATAA […]\nBiocenter). Gene expression levels were normalized to RPLP0, and relative expression was calculated using the ΔΔCt method. Data were expressed as fold change relative to the corresponding DMSO control. Statistical analysis of changes in gene expression was performed w ith a ratio paired t-test corrected for multiple comparisons using Holm-Šídák's method (α = 0.05) in GraphPad Prism (v 10.6.1).\nTable S1. Sequences of primer pairs used in the qRT -PCR analysis of gene expression."}, "[2]": {"system": "NFE2L1 pathway (DDI2-dependent) in HCT116 cells", "assay": "3×PSMA4-ARE-LUC reporter in HCT116 WT and DDI2 knockout cells", "assay_type": "cell-based, human", "method": "(§2) Fig. 1 (A) Targeted library screening of RUN compounds using the 3×PSMA4-ARE-LUC dual reporter assay in HEK293 cells. Cells were exposed to RUN compounds (5 μM) for 16 hours, and luciferase activity was measured. Data are presented as the mean ± SD from three independent experiments (n = 3). Results are shown as a fold change in luminescence relative to DMSO-treated cells. Selected hit compounds are highlighted in distinct colours. (B) RUN-89 specifically activates the NFE2L1 pathway. The DDI2 knockout (KO) and parental (WT) HCT116 cells were transfected with the 3×PSMA4-ARE-LUC reporter and treated with 0.5 μM bortezomib (BTZ) and 5 μM RUN-89 for 16 hours. Data are presented as the Geomean ± GeoSD of three independent experiments (n = 3). Statistical analysis was performed on log2-transformed values using two-way repeated-measures ANOVA followed by Šídak's multiple comparison test. (C) RUN-89 selectively triggers downstream signaling events associated with NFE2L1 gene expression. HEK293 cells were transfected with lipid nanoparticles (LNPs) carrying siRNAs targeting NFE2L1 or NFE2L2. LNPs formulated with non-targeting siRNA served as a negative control. Following 24 hours of incubation, cells were treated with 7.5 μM RUN-89 or DMSO (vehicle) for an additional 16 hours. Expression of the proteasomal subunit gene PSMC4 was then quantified by RT-qPCR. Data are shown as the Geomean ± GeoSD from three independent biological replicates (n = 3). Log2-transformed data were analyzed using two-way repeated-measures ANOVA with the Geisser–Greenhouse correction, followed by Tukey's multiple comparison test with individual variances computed for each comparison. Additional results for NFE2L1, NFE2L2, PSMB7, and PSMD12 are presented in SI Fig. S10.\nTo clarify whether the representative compound RUN-89 activates the NFE2L1-specific luciferase reporter independently of the KEAP1–NFE2L2 pathway, we used the 3×PSMA4-ARE-LUC dual reporter in previously published DDI2 knockout HCT116 cells (from ATCC CCL-247 (RRID:CVCL_0291)), in which the protease essential for NFE2L1 activation is disrupted. […] These findings indicate that RUN-89 activates the reporter construct through NFE2L1.\n2 Biology Experimental Procedures […]\n(§3) Cell lines were sourced from the ATCC (USA) and/or ECACC (UK), namely HCT116 (human colorectal carcinoma), ATCC CCL-247 (RRID:CVCL_0291), HEK-293 (human embryonic kidney), ATCC CRL-1573 (RRID:CVCL_0045), SH-SY5Y (human neuroblastoma), ATCC CRL-2266 (RRID:CVCL_0019). The characteristics of DDI2 knockout cells derived from HCT116 cells have been described previously (Sedlacek et al., 2025). All cell lines were tested for mycoplasma contamination. Most of the cell lines were cultured in Dulbecco's Modified Eagle Medium (DMEM) enriched with 10% fetal bovine serum (FBS) and 2 mM L-glutamine, under standard conditions of 37 °C with 5% CO₂. DNA transfection was performed with Lipofectamine 2000, following the manufacturer's instructions. […]\nalamarBlue assay according to the standard protocol.(1)\n2.3 Dual luciferase phenotypic assays\nHEK293-derived cells stably expressing the 3×PSMA4-ARE-Luc reporter were maintained at low to mid passage numbers before use. For each experiment, cells were transiently transfected with the pRL-TK Renilla luciferase plasmid using Lipofectamine 2000.\nApproximately 5–6 hours post-transfection, cells were seeded into plate format according to the experiment (384-well plate mostly). On the following day, cells were treated with the indicated test compounds or DMSO vehicle control for 16 hours (unless otherwise specified).\nAfter treatment, cells were lysed and luciferase activities were quantified using the Dual-Luciferase® Reporter Assay System according to the manufacturer’s instructions and established protocols.(2, 3) For assays using the CMV-XBP-Gluc construct encoding Gaussia […]"}, "[3]": {"system": "NFE2L1 pathway", "assay": "3×PSMA4-ARE-LUC reporter with or without N-acetyl-L-cysteine (NAC)", "assay_type": "cell-based, human", "conditions": "HEK293, 5 μM, 16 h", "excerpt": "as §1, with “stress. […]” for “stress.”\nTo determine whether RUN compounds activate the NFE2L1 pathway via reactive oxygen species (ROS) generation or through Keap1-NRF2 pathway crosstalk, we used the 3xPSMA4-ARE-LUC dual reporter assay in HEK293 cells. […] A reduction in luminescence signal upon NAC co-treatment would indicate that the compound activates the reporter via ROS-mediated mechanism or Keap1-NRF2-dependent oxidative/electrophilic stress. […]"}, "[4]": {"system": "NFE2L1 pathway", "assay": "3×PSMA4-ARE-LUC dual luciferase reporter assay in HEK293 cells", "assay_type": "cell-based, human", "conditions": "Homo sapiens; 5 μM, 16 h, HEK293, luminescence relative to DMSO-treated cells; read-out: NFE2L1 activation [5 μM]", "excerpt": "In our previous work,[43] we developed a library of NFE2L1 stimulators using a cell-based luciferase reporter assay. This system was based on three tandem copies of the antioxidant response element (ARE) derived from the NFE2L1 target gene proteasome subunit alpha type-4 (3xPSMA4, PSMA4-ARE-LUC). It was designed to detect the proteasome “bounce-back” response induced by proteasome inhibitors such as MG132 or bortezomib.[22,43,45,46] The reporter assay was adapted to a 384-well format and used to evaluate a new set of RUN compounds designed around the structural framework of the RUN-47 activator. We focused on identifying compounds that increased the 3×PSMA4-ARE-LUC signal (Fig. 1A), while simultaneously assessing cytotoxicity (see the SI, Fig. S2). […] In contrast, thiourea- and urea-containing derivatives generally produced only weak to intermediate responses, rarely exceeding a fold change of 7.\nas §2\nFigure S1: Concentration–response of luciferase cell-based assay (PSMA4-ARE-luc2P reporter) on treatment with RUN-81, RUN-89, and RUN-94. Concentration is plotted on the X-axis. Dose–response relationships were analyzed using a four-parameter logistic curve (4PL), or a bell-shaped dose-response curve, both with weighting 1/Y^2. Dotted lines represent 95% confidence bands. Calculated EC₅₀ values, curve parameters, and asymmetrical confidence intervals are summarized in the accompanying table . Data are presented as mean ± SD from four independent experiments (n=4).\n(§4) 2 Biology Experimental Procedures\n(§5) Safety statement: No unexpected or unusually high safety hazards were encountered. […]\nMost of the cell lines were cultured in Dulbecco's Modified Eagle Medium (DMEM) enriched with 10% fetal bovine serum (FBS) and 2 mM L-glutamine, under standard conditions of 37 °C with 5% CO₂. DNA transfection was performed with Lipofectamine 2000, following the manufacturer's instructions. Transgenic cells were then selected with either G418 (400 µg/mL) or hygromycin B (450 µg/mL), based on the selection marker encoded by the plasmid used. Cell viability was evaluated using the […]"}, "[5]": {"system": "HEK293 cells", "assay": "alamarBlue cytotoxicity assessment in HEK293 cells", "assay_type": "cell-based, human", "conditions": "HEK293, alamarBlue, 16 h; concentration not given", "method": "Figure S2: Concentration-dependent cytotoxicity assessment of RUN compounds.\nHEK293 cells were treated for 16 hours with increasing concentrations of RUN compounds (1.25 µM; 2.5 µM; 5; 7.5 and 10 µM) or DMSO (negative control). Cell viability was determined using the alamarBlue assay following the protocol of Riss.(1) Data are presented as means ± SD from three independent experiments (n = 3). Statistical analysis was done using repeated measures one-way ANOVA with Geisser–Greenhouse correction, followed by Dunnett’s multiple comparisons test. *p<0.05. Detailed results of the analysis are shown in […]\n(1 picture or pasted object on this page, not shown here)\nas §4, §5\nas §3, with “instructions. Transgenic cells were then selected with either G418 (400 µg/mL) or hygromycin B (450 µg/mL), based on the selection marker encoded by the plasmid used.” for “instructions.”"}, "[6]": {"system": "SNCA-EGFP", "assay": "SNCA-EGFP degradation in SH-SY5Y cells", "assay_type": "cell-based, human", "method": "This reporter is prone to aggregation because of its slow protein turnover. To assess compound efficacy, we measured the fluorescence signal of GFP-tagged synuclein within aggregates.\nThe GFP fluorescence signal was then normalized to that of the DMSO control and the cell number. The experiment was performed in at least five biological replicates. Statistical analysis was performed using paired t-tests with Holm–Šídák correction for multiple comparisons (α = […]\nSH-SY5Y cells stably expressing SNCA-EGFP were seeded on a plate and allowed to […]\ntadalafil (5 µM), or RUN compounds at a concentration of 1 µM or treated with an equivalent volume of DMSO dissolved in buffer as a vehicle control. The treatment was performed for 16 hours and then fluorescence was measured. The GFP signal intensity was normalized to both the DMSO control and the cell count."}, "[7]": {"conditions": "SH-SY5Y, SNCA-EGFP degron, Figure S7"}}, "data": [{"molecule": "COc1ccc(/C=C/C(=O)C(CC2CCC2)C(=O)/C=C/c2ccc(OC)c(OC)c2)cc1OC", "note": "[ASC-JM-17, reference compound]", "values": [{"measurement": "Ub-G76V-GFP reporter assay, mean", "setting": "[1]; U2OS cells, Fig. S3", "result": 4.073}, {"measurement": "Ub-G76V-GFP degradation (ubiquitin-proteasome system function)", "setting": "[1]; U2OS, 5 μM, 8 h, versus DMSO", "result": "impaired proteasomal degradation"}]}, {"molecule": "CC(C)C[C@H](NC(=O)[C@H](Cc1ccccc1)NC(=O)c1cnccn1)B(O)O", "note": "[BTZ, bortezomib, reference compound]", "values": [{"measurement": "Mean log2-transformed reporter fold change, HCT116 KO 04", "setting": "[2]; DDI2-/- clone KO 04, 0.5 μM BTZ or 5 μM RUN-89, 16 h, DMSO = 0", "result": 0.1712}, {"measurement": "Mean log2-transformed reporter fold change, HCT116 KO 11", "setting": "[2]; DDI2-/- clone KO 11, 0.5 μM BTZ or 5 μM RUN-89, 16 h, DMSO = 0", "result": 0.1696}, {"measurement": "Reporter activity in DDI2-deficient cells", "setting": "[2]; DDI2 knockout HCT116, in contrast to wild-type cells", "result": "neither the proteasome inhibitor bortezomib nor RUN-89 induced reporter activity"}, {"measurement": "Mean log2-transformed reporter fold change, HCT116 WT", "setting": "[2]; WT (DDI2+/+), 0.5 μM BTZ or 5 μM RUN-89, 16 h, DMSO = 0", "result": 1.529}]}, {"molecule": "COc1ccc(/C=C2\\CNC/C(=C\\c3ccc(OC)c(OC)c3)C2=O)cc1OC", "note": "[RUN-84]", "values": [{"measurement": "NFE2L1 reporter activation in the presence of NAC", "setting": "[3]", "result": "reduction in activation"}, {"measurement": "fold induction at 5 µM", "setting": "[4]", "result": 4}, {"measurement": "Tox [% of ctrl.]", "setting": "[5]", "result": "73% of ctrl."}]}, {"molecule": "CN1CC(=O)N2[C@H](c3ccc4c(c3)OCO4)c3[nH]c4ccccc4c3C[C@@H]2C1=O", "note": "[tadalafil, reference compound]", "values": [{"measurement": "EGFP-SNCA aggregation (GFP signal)", "setting": "[6]; SH-SY5Y SNCA-EGFP, 16 h, RUN compounds 1 μM, PD169316 3 μM, tadalafil 5 μM", "result": "reduction"}, {"measurement": "Geometric mean of ratios (paired t tests, Treatment vs Control = 100)", "setting": "[6]; [7]", "result": -20.51}, {"measurement": "Geometric mean, Treatment (Control = 100)", "setting": "[6]; [7]", "result": 79.49}]}]}
